Test results as given in US20060258635A1, “Use of a porphyrin compound for the treatment of skin fungi” (PHOTOBIOCHEM N.V., priority 2003, published 2006).

Legend:
Trichophyton rubrum [1] = assay: Photodynamic treatment of Trichophyton rubrum suspension culture (white light illumination, growth on MEA quantified by counting inoculates); type: cell-based; conditions: for photodynamic efficacy below a concentration of 3 μg/ml: below 3 μg/ml; for photodynamic efficacy below a concentration of 3 μg/ml / photodynamic efficacy above a concentration of 3 μg/ml: FIG. 1A; for result of photodynamic treatment of Trichophyton rubrum in suspension culture: 30 min incubation at 28° C., white light illumination, growth monitored during one week; for photodynamic efficacy above a concentration of 3 μg/ml: above 3 μg/ml; for concentration at which a true fungicidal effect was detected: after photodynamic treatment, FIG. 1B; for survival of the fungus after photodynamic treatment: after 7 days, over the whole concentration range used, control without photosensitizer is 100%
Procedure: Materials The fungus Trichophyton rubrum was purchased from the Centraalbureau voor Schimmelcultures (CBS), Baarn, The Netherlands. Cultures were grown on Malt Extract Agar (MEA, Oxoid, Hampshire England). Suspension cultures were made in Dulbecco's Modified Eagle Medium (DMEM, GibcoBRL, UK) with 2.5 % Fetal Calf Serum (FCS, GibcoBRL, UK).
Solid cultures were maintained at 28° C., the suspension cultures at room temperature. Hematoporphyrin (HP) was purchased from Porphyrin Products Inc. (Utah, USA), 5,10,15-tris(4-methylpyridinium)-20-phenyl-[21H, 23H]-porphyrine trichloride (Sylsens B), deuteroporphyrin (DP) and deuteroporphyrin monomethylester (DP mme) were synthesized and kindly provided by the Department of Bio-Organic Photochemistry, Leiden University, the Netherlands (purity, checked with NMR was more than 99.5%). All the phthalocyanines were purchased from Porphyrin Products. Inc. (Utah, USA)) and Photofrin was purchased from Lederle Parenterals Inc. (Carolina, USA). Polyethylene-glycol was obtained from Genfarma B.V. (Maarssen, the Netherlands), while all other chemicals were purchased from J.T.Baker (Deventer, The Netherlands).
The following solvents were used: • 50 mM sodium phosphate buffer pH 7.4 for Sylsens B, HP, Photofrin, ZnPc and AlPcS4; • polyethyleneglycol:ethanol:water (3:2:5) for DP and DP mme; and • dimethylformamide (DMF) for PcS4.
Stock solutions of the photosensitizers of 2.5 mg/ml solvent were stored at […] for no longer than one week.
Photodynamic treatment Illuminations were performed with a lamp from “MASSIVE” (no.74900/21), 1× max. 500W-230 V-R7s, IP 44. To avoid heating of the samples to be illuminated, the white light produced by the lamp first passes a 2 cm thick water layer before reaching the samples. The light intensity was measured with a IL1400A photometer equipped with a SEL033/F/U detector (International Light, Newburyport, Mass., USA). Before illumination, the fungal culture suspensions were incubated with the photosensitizer in test tubes for 30 minutes at a temperature of 28° C. After incubation, the suspension cultures were illuminated in the presence of the sensitizer in 3 cm diameter culture dishes (Greiner, Alphen aan den Rijn, The Netherlands). After illumination, the contents of the culture dishes were transferred to dishes of 9 cm diameter containing MEA, placed in the incubator at 28° C. and growth was monitored during one week and quantified by counting the number of inoculates present.

Trichophyton rubrum [2] = type: cell-based

Molecule | photodynamic efficacy below a concentration of 3 μg/ml (Trichophyton rubrum [1]) | dark toxicity (Trichophyton rubrum [2]) | result of photodynamic treatment of Trichophyton rubrum in suspension culture (Trichophyton rubrum [1]) | photodynamic efficacy above a concentration of 3 μg/ml (Trichophyton rubrum [1]) | concentration at which a true fungicidal effect was detected (Trichophyton rubrum [1]) | effectiveness among the porphyrin derivatives (Trichophyton rubrum [1]; comparison of porphyrin derivatives) | survival of the fungus after photodynamic treatment (Trichophyton rubrum [1]) | concentration at which dark toxicity is displayed (Trichophyton rubrum [2])
CC1=C(CCC(=O)O)c2cc3nc(cc4[nH]c(cc4C)cc4[nH]c(cc1n2)cc4C)C(C)=C3CCC(=O)O [DP, deuteroporphyrin] | poorest efficacy | expresses a dark toxicity at higher concentrations |  |  |  |  |  | 
CC1=C(CCC(=O)O)c2cc3[nH]c(cc4nc(cc5[nH]c(cc1n2)c(C)c5C(C)O)C(C)=C4C(C)O)c(C)c3CCC(=O)O (stereo not drawn) [HP, Hematoporphyrin] |  | no dark toxicity |  |  |  |  |  | 
C[n+]1ccc(-c2c3nc(c(-c4cc[n+](C)cc4)c4ccc([nH]4)c(-c4cc[n+](C)cc4)c4nc(c(-c5ccccc5)c5ccc2[nH]5)C=C4)C=C3)cc1.[Cl-].[Cl-].[Cl-] [Sylsens B, 5,10,15-tris(4-methylpyridinium)-20-phenyl-[21H, 23H]-porphyrine trichloride] | better photodynamic efficacy | no dark toxicity | completely killing the fungus in almost all experiments | analogous to the effect caused by the other porphyrins | 3 µg/mL | by far the most effective |  | 
[Zn+2].c1ccc2c(c1)-c1nc-2nc2[n-]c(nc3nc([n-]c4nc(n1)-c1ccccc1-4)-c1ccccc1-3)c1ccccc21 [ZnPc] |  |  |  |  |  |  | 100% | 
Photofrin |  |  | merely a delay of growth in the first days |  |  |  | 100% | ≥ 90 µg/mL
deuteroporphyrin monomethylester [DP mme] | the same as detected with HP | expresses a dark toxicity at higher concentrations | completely killing the fungus in almost all experiments | analogous to the effect caused by the other porphyrins | 3 µg/mL |  |  | 
